# Results reported in US7276248B2, “Conjugate having a cleavable linkage for use in a liposome” (ALZA Corporation, priority 1999, dated 2007).
# Read-outs that look alike come from different tables or passages of the source.
# How the values were obtained:
# [1] = system: M109 cells, a mouse lung carcinoma line; experiment: In vitro cytotoxicity / growth rate of M109 cells, methylene blue staining, 72 hour continuous exposure; type: cell-based; conditions: read-out: IC50 Values for M109 tumor cells after 72 hour culture with continuous exposure to formulation
# Experimental: IC50 values were taken as the drug concentration which caused a 50% inhibition of the control growth rate (IC50), as described in Example 6.
# Upon completion of the assay, the cells were fixed and evaluated using the methylene blue staining assay.
# In the assay, 1500 M109 mouse carcinoma cells from exponentially growing cultures in 200 μl aliquots (RPMI-1640 medium+10% fetal bovine serum) were plated onto 96 well flat-bottom microtiter plates. […] For each 10-fold increase in drug concentration, four drug concentration points were tested. Each test was performed in triplicate wells and in two parallel plates. The cells were treated continuously for 72 hours.
# After the 72 hour treatment period, the cultures were fixed by the addition of 50 μl 2.5% glutaraldehyde to each well for 10 minutes. […] The dye was extracted with 200 μl 0.1 N HCl for 60 minutes at 37° C. and the optical density was determined using a microplate spectrophotometer.
# The cell number determined by counting cells with a hemocytometer correlated well with the spectrophotometric absorbance. The initial cell plating density was chosen to ensure a linear relationship between cell number and absorbance at the end of the study. In each study, six wells were fixed before drug was added to determine the initial average absorbance. […]
# The growth rate was calculated as GR=(ln 2/DT). […]
# [2] = In vivo pharmacokinetics in rats after single bolus intravenous injection; conditions: time points greater than about 5 minutes
# Experimental: The in vivo pharmacokinetics of the liposomes containing cholesterol and the cholesterol-free liposome formulation was determined in rats.
# Eight rats were randomized into treatment groups as follows:
# A single intravenous injection of the test formulation was administered as a bolus dose. Blood samples were taken from each animal at the following times after injection: 30 seconds, 15 minutes, 30 minutes, 1 hour, 2 hours, 4 hours, 8 hours, 24 hours, 48 hours, 72 hours and 96 hours. […] A 200 mM iodoacetamine solution was prepared by placing 199.3 mg of iodoacetamide in 5.1 mL of 7.5% EDTA. 15 μL of the 200 mM iodoacetamide solution was placed in each 1 μL of blood sample.
# The final volume was adjusted to 1 mL with methanol. […] The samples were spun down at 3,000 rpm for 10 minutes at room temperature. 300 μL of supernatant was transferred to HPLC vials containing 300 μL insert for injection.
# 100 μL of plasma sample was denatured with 900 μL of methanol followed by centrifugation for 10 minutes at 3,000 rpm. […]
# Peak area and retention times were determined by the PE-Nelson Turbochrom (Version 4.1) system. […] The linearity of the method was evaluated suing standard responses from six concentration levels. […] The precision and accuracy of the method were evaluated from the back-calculated concentrations of the standards as well as from the quality control samples.
structure (smiles),measurement,setting,value
"CO[C@@]12[C@H](COC(N)=O)C3=C(C(=O)C(C)=C(N)C3=O)N1C[C@@H]1N[C@@H]12 [free MMC, mitomycin C]",IC50,[1]; Cysteine Concentration 0,285 ± 92 nM
same,IC50,[1]; Cysteine Concentration 1000 μM,300 ± 71 nM
same,dose remaining in the blood,[2],Virtually none
